Results as given in ChEMBL document CHEMBL3507680, “University of Dundee, Gates Library screen for HepG2 cell viability”.

Assay: Human HepG2 cell viability assay in 384 well format
Format: toxicity, cell-based
Set-up: dose 125 nL, time 70.5 hour; cytotoxicity at 70.5 h: concentration not given beside the values
Settings: HepG2 cells, read-out: Inhibition

Compound | cytotoxicity at 70.5 h [%]
O=C(NCN1CCc2ccccc2C1)c1cnccn1 | -8.88
Cc1nnc(CN(Cc2ccccc2C(F)(F)F)C2CC2)o1 | -10.9
Cc1nnc(CN(Cc2ccccc2Cl)C2CCCC2)o1 | -5.33
CCc1cnc(CNc2ccc(C(=O)NCc3ccco3)cc2C)o1 | -8.92
Cc1ccccc1-n1cnc(Cl)c1C(=O)O | -8.21
O=C(O)c1ccnc(SCc2ccccc2)c1 | 32.7
Cc1ccc(-c2nc(CSCCC(=O)NC(N)=O)co2)cc1 | -11.4
O=C1CC(N(C(=O)CCc2c[nH]c3ccccc23)C2CC2)C(=O)N1 (stereo unspecified) | -14.1
Cc1nnc(C(C)N2CCc3[nH]c4ccc(Cl)cc4c3C2)o1 (stereo unspecified) | -4.39
Cc1nnc(C(C)N2CCc3[nH]c4ccccc4c3C2)o1 (stereo unspecified) | -4.16
O=C(O)c1c(Cl)ncn1-c1cccc2ccccc12 | -4.51
O=C(NC1CCN(c2ccccc2Br)C1)c1c[nH]nn1 (stereo unspecified) | -6.49
O=C(O)c1cccn1-c1ccc2c(c1)OCCO2 | -9.54
Clc1cc(Cl)cc(OCCN2CCC(n3cncn3)CC2)c1 | -0.108
CC(C)N1CCN(C(=O)c2ccccc2NCc2cccnc2)CC1 | -5.19
Cc1cc(=O)c(C(=O)N2CCN(C)c3ccccc3C2)c[nH]1 | -9.5
CC(C)(CO)CCCNC(=O)NC1(c2cccc(F)c2)CC1 | -8.07
CCC1CN(C)c2ccccc2CN1C(=O)c1c[nH]c(=O)cc1C (stereo unspecified) | -11.3
O=C(O)c1c(Cl)ncn1-c1ccccc1 | -9.78
CS(=O)(=O)CCCN(CCc1cccc(F)c1)C1CC1 | 21.4
Cc1cccc(C)c1OCCCN1CCC(n2cncn2)CC1 | 3.77
O=C(NC1CCN(c2ccccc2OC(F)F)C1)c1c[nH]nn1 (stereo unspecified) | -10.2

Compound | cytotoxicity at 70.5 h [%]
CC1(C)CN=C(N2CCN(CC3CCCO3)CC2)S1 (stereo unspecified) | -7.36
CCc1nc(CNC(C)(CO)C2CCCCC2)no1 (stereo unspecified) | 15.6
COc1ccc(N(Cc2ccco2)C(=O)COC(C)C)cc1F | -7.47
COc1c(CNC(C)C(=O)NC2CCCC2)c(C(C)C)nn1C (stereo unspecified) | -6.92
Clc1ccc(-c2cnc(CNC3CCc4ncnn4C3)o2)cc1 (stereo unspecified) | -12.9
CCCN(CC(F)F)c1cc(COC)nc2ncnn12 | -9.58
COCc1cc(N(Cc2ccsc2)C2CC2)n2ncnc2n1 | -6.87
Cc1cc(C(=O)Nc2nnn[nH]2)ccc1I | -5.12
CCC(C)(N)c1nc(=O)c(C)c(C)[nH]1 (stereo unspecified) | -7.88
CC(NC(=O)N1CCC(CO)CC1)c1csc2ccccc12 (stereo unspecified) | -1.97
O=C(CN1CCOc2ccc(Cl)cc21)NCCCn1cccn1 | 9.56
CN(Cc1nnc(-c2ccco2)o1)Cc1nc2c(s1)CCCC2 | -11.2
O=C(O)c1csc(S(=O)(=O)N2CCCc3cccc(OC(F)F)c32)c1 | -5.21
OCC(CO)Nc1ccc2ccc(Cl)c(Cl)c2n1 | 19.4
Cc1cccc(S(=O)(=O)NCC(C)(C)CC(C)O)c1C#N (stereo unspecified) | -6.31
CC(O)CC(C)(C)CNS(=O)(=O)c1cccc(Cl)c1C#N (stereo unspecified) | -10
CCN(C(=O)CNC1CCc2ncnn2C1)C1=CCCCC1 (stereo unspecified) | 4.5
O=C(NCCCC(=O)N1CCN(CC2CC2)c2ccccc21)C1CC1 | -7.6
Cc1cc(C)n(-c2ccc(C(=O)N3CCCC3c3cnn(C)c3)cc2)n1 (stereo unspecified) | -5.54
C[S+]([O-])c1nncn1CCCc1ccc(Cl)cc1 (stereo unspecified) | -2.94
CCCC(=O)N1CCCCC1C(=O)Nc1ccc(-c2nnc[nH]2)cc1 (stereo unspecified) | -5.35
CCC(C)C(=O)NCCc1nc(C(F)(F)F)cs1 (stereo unspecified) | -6.38

Compound | cytotoxicity at 70.5 h [%]
CC(NC(=O)NCCc1nc(C(F)(F)F)cs1)C(=O)N(C)C (stereo unspecified) | -7.19
CC(C)C(O)CNC(=O)Nc1cnn(Cc2ccccc2)c1 (stereo unspecified) | -1.15
CC(C)CN1C(=O)C2(CCCC2)NC1c1cn(C)c(=O)n(C)c1=O (stereo unspecified) | 0.777
Cc1cccc(Sc2nccn(C)c2=O)c1 | -13.8
Cc1ccc(Sc2nccn(C)c2=O)cc1 | -3.35
Cn1ccnc(Sc2ccccc2)c1=O | -9.9
CC(=O)c1ccc(CNC(=O)c2c(C)cc(C)cc2C)nc1C | 3.34
CC(C)N(C)CC(=O)N(C)Cc1nc(C(F)(F)F)cs1 | 2.33
CSC1(CNC(=O)CCc2ccc(Cl)s2)CCOCC1 | -5.64
Cn1cc(C2NC3(CCCC3)C(=O)N2CC2CC2)c(=O)n(C)c1=O (stereo unspecified) | -5.99
Cc1nc(C)c(CNC(=O)N2CCc3ccccc3C2CO)s1 (stereo unspecified) | -1.94
CCC(=O)N1CCC(NC(=O)c2cccc(-n3ccnc3)c2)C1 (stereo unspecified) | -8.46
Cc1cc(CNC(=O)N2CCc3ccccc3C2CO)c(C)o1 (stereo unspecified) | -5.72
CC(=O)c1ccc(CNC(=O)c2cc(C)nn2C)nc1C | 3.42
Cc1nc(C(=O)N2CCN(C(C)c3ccccc3F)CC2)cs1 (stereo unspecified) | -1.44
Cc1ccc(CC(=O)N2CCN(C(C)c3ccccc3F)CC2)cn1 (stereo unspecified) | -2.9
O=C(CCc1ccsc1)Nc1cnccc1O | -6.71
CC(NC(=O)Cn1cccnc1=O)c1ccc(C(F)(F)F)cc1 (stereo unspecified) | 12
NC(=O)CCCNC(=O)COc1ccccc1C(F)(F)F | -5.37
CCC(C#N)NC(=O)c1ccc(Oc2cccnc2)cc1 (stereo unspecified) | -8.45
CC1CCCCN1CCNC(=O)NCc1ccc(C#N)cc1F (stereo unspecified) | -6.05
CC1CCN(c2nc3c(cnn3-c3ccccc3)c(=O)[nH]2)CC1 | -5.83

Compound | cytotoxicity at 70.5 h [%]
N#Cc1ccc(CNC(=O)NCCNC(=O)C2CCCC2)c(F)c1 | 13.4
Cc1nc(C2CCCN(C(=O)CN3CCCNC3=O)C2)sc1C (stereo unspecified) | -8.3
CNc1nc(CNC(=O)Nc2ccc(OC(C)C)cc2C)cs1 | -2.53
O=C(O)c1ccc(CCNC(=O)C2(c3ccccc3)CC2)cc1 | 12.5
N#CCSCCCN1CCN(C(=O)C2CCCC2)CC1 | -5.88
Cc1[nH]c2ccccc2c1CCNC(=O)N1CCC2(C1)OCCO2 | -17.8
CCc1nc(C2CCCN2C(=O)CCCOc2cccc(F)c2)no1 (stereo unspecified) | -18.6
CC(c1ccccc1F)N1CCN(C(=O)Cc2ccncc2)CC1 (stereo unspecified) | -11.8
Cc1nc(C2CCCN2C(=O)CCCOc2ccccc2C)no1 (stereo unspecified) | -8.51
CCC(C)(NCC(=O)N(c1ccccc1)C(C)C)c1nc(C)cs1 (stereo unspecified) | 2.38
CC(=O)N(Cc1ncc(C)o1)C1CCN(CCNC2CCCCC2)C1 (stereo unspecified) | 9.67
O=C(CCn1ccccc1=O)Nc1ccc(F)c(Cl)c1 | -11.7
Cn1c(Nc2cn[nH]c2)c(C#N)c(=O)n(C)c1=O | 11.5
CCN(CC)c1ccc(C(=O)NCc2cccnc2-n2cncn2)cn1 | -10.7
Cc1ccccc1OCCC(=O)OC(C)C(=O)Nc1sccc1C(N)=O (stereo unspecified) | -7.64
COc1cccc(CNC(CN2CCN(C)CC2)c2ccccc2)c1 (stereo unspecified) | 5.01
Cc1ccc(CNC(CN2CCN(C)CC2)c2ccccc2)cc1 (stereo unspecified) | 3.21
C[S+]([O-])c1nncn1CC(=O)c1cccc(Cl)c1 (stereo unspecified) | -7.53
CCc1c(C)[nH]c(C(C)(N)CC)nc1=O (stereo unspecified) | -10.4
CCc1c(C)[nH]c(C(C)(C)N)nc1=O | -7.1
